Results: article PMC4904262 (ACS Medicinal Chemistry Letters, 2016)
Where two headings read alike, the source gives them in different places.

Legend:
WNT signaling [1] = details: for fold less active in the cell-based assay: relative to 4; for drop off in the cell-based assay: cell-based versus CDK8 affinity
in vitro [2] = details: human, microsomes
in vitro [3] = details: rat, microsomes
in vitro [4] = details: mouse, microsomes
CDK8 = CDK8 (Homo sapiens, UniProt P49336); assay type: binding; details: versus parent analogue
CDK8, sequence (P49336 whole entry): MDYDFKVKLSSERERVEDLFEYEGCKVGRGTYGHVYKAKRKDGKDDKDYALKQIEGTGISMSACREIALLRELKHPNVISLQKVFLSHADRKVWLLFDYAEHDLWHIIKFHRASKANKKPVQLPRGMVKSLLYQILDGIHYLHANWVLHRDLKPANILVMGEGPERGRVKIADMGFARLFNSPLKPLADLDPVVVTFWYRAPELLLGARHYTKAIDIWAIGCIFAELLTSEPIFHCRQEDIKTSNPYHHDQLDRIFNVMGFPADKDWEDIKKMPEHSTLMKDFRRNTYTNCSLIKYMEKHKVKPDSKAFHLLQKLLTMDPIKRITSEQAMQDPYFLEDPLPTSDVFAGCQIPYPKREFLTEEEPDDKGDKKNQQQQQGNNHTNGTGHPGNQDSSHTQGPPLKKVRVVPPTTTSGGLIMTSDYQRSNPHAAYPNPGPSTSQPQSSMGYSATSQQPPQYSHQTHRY
CDK8, sequence (P24863 whole entry, further chain): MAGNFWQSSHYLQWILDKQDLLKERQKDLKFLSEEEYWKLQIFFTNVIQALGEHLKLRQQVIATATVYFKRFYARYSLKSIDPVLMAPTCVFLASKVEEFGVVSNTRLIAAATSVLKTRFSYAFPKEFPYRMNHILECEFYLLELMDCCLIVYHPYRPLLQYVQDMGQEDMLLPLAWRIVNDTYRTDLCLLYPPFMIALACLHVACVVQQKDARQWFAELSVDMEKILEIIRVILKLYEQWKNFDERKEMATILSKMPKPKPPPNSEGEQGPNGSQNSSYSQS

Caco-2 = details: human
aldehyde oxidase [5] = target: T1, aldehyde oxidase (Homo sapiens, UniProt Q06278); experiment: in vitro; details: cytosol
T1 sequence (Q06278 whole entry): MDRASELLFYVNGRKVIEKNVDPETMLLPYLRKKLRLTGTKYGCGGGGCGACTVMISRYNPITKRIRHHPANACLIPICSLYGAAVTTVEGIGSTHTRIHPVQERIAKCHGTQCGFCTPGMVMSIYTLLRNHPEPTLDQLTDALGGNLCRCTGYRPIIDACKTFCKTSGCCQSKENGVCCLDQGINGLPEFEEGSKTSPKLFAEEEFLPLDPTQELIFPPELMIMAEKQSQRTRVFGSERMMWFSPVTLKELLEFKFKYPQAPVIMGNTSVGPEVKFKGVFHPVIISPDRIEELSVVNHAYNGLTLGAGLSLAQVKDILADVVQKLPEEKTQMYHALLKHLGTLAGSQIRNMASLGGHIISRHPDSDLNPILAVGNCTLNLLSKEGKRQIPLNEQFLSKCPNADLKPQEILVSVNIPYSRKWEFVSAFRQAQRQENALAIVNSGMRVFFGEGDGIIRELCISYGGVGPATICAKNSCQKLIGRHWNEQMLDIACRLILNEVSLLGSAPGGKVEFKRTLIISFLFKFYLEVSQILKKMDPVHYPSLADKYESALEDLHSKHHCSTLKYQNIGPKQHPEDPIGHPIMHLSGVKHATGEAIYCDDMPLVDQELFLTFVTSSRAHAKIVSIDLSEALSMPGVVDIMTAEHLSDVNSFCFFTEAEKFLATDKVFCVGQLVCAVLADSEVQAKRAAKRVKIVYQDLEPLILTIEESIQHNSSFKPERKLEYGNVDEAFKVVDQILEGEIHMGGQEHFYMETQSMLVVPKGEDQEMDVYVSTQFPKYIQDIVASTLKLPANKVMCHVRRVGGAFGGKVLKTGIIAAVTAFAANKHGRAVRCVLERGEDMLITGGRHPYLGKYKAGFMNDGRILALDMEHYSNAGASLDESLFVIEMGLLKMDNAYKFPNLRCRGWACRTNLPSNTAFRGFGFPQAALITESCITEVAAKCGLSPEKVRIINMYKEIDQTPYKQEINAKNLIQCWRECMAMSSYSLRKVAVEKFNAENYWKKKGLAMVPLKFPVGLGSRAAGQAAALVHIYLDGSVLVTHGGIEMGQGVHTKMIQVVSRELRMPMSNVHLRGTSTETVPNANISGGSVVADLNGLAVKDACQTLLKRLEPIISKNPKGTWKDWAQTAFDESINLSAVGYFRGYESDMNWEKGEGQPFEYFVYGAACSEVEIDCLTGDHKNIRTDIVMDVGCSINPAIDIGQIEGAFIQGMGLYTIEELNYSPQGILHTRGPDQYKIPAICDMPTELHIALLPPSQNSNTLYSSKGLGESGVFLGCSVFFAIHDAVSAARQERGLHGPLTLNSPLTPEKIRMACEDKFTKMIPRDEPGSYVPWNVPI

[6] = mouse
[7] = human
aldehyde oxidase [8] = target: T1, aldehyde oxidase
in vitro [9] = details: human, Caco-2
WNT signaling [10] = details: read-out: 7dF3 IC50; Figure 1; cited from earlier work
CDK19 = details: read-out: CDK19 IC50; Figure 1; cited from earlier work
WNT signaling [11] = experiment: cells; details: 7dF3, read-out: 7dF3 IC50

In the case of `CC(=O)Nc1ccc2cncc(-c3ccc(-c4cnn(C)c4)cc3)c2n1` [Compound 18], the “fold less active in the cell-based assay” value (WNT signaling [1]) is reported as 10 fold, the microsomal CLint at 1 µM (in vitro [2]) is reported as 26 µL/min/mg and the microsomal CLint at 1 µM (in vitro [3]) is reported as 247 µL/min/mg. The microsomal CLint at 1 µM (in vitro [4]) was 168 µL/min/mg.

With `Cn1cc(-c2ccc(-c3cnc(N)c4ccc(-c5nccn5C)nc34)cc2)cn1` [Compound 57] the “drop in CDK8 affinity” value (CDK8) was 225 fold.

In the case of `Cn1cc(-c2ccc(-c3cnc(N)c4ccc(C(=O)N5CCNCC5)nc34)cc2)cn1` [Compound 49], the microsomal CLint (in vitro [2]) is reported as < 10 µL/min/mg, the “Caco-2 ER” value (Caco-2) is reported as 145 and the “Caco-2 PappA-B” value (Caco-2) is reported as 0.96 × 10^–6 cm/s. The CLint scaled at 1 µM (aldehyde oxidase [5]) was < 4.2 mL/min/kg, the microsomal CLint (in vitro [3]) was < 10 µL/min/mg and the microsomal CLint at 1 µM (in vitro [4]) was 36 µL/min/mg. The Cl ([6]; Balb/C, in vivo) was 58.5 mL/min/kg, the F ([6]; Balb/C, in vivo) was <5% and the Vss ([6]; Balb/C, in vivo) was 2.49 L/kg.

With `CNC(=O)c1ccc2cncc(-c3ccc4c(c3)CS(=O)(=O)N4)c2n1` [Compound 8] the main metabolite [7] was “oxidation to give the C5-OH compound 37 as the main metabolite”, the “% of parent compd remaining after 45 min” value (aldehyde oxidase [8]; human, cytosol, 0.75 h, 1 µM) was 20% and the microsomal CLint (in vitro [2]) was < 10 µL/min/mg. For the same molecule, the Papp A→B (in vitro [9]) was 5.94 ×10⁻⁶ cm/s, the efflux ratio (in vitro [9]) was 7.26 and the microsomal CLint at 1 µM (in vitro [3]) was 21 µL/min/mg. The microsomal CLint at 1 µM (in vitro [4]) was 23 µL/min/mg, the in vivo clearance [6] was “exceeded liver blood flow” and the Cl ([6]; in vivo) was “Not measurable”. The F ([6]; in vivo) was “Not measurable” and the Vd ([6]; in vivo) was “Not measurable”.

For `Cn1cc(-c2ccc(-c3cncc4ccc(S(N)(=O)=O)cc34)cc2)cn1` [Compound 36], the “drop off in the cell-based assay” value (WNT signaling [1]) was 12 fold, the microsomal CLint at 1 µM (in vitro [2]) was 47 µL/min/mg and the microsomal CLint at 1 µM (in vitro [3]) was 220 µL/min/mg. For the same molecule, the microsomal CLint at 1 µM (in vitro [4]) was 125 µL/min/mg.

With `CNC(=O)c1ccc2cncc(-c3ccc4c(c3)CS(=O)(=O)N4C)c2n1` [Compound 7] the “AO substrate (Enzyme assay)” value (aldehyde oxidase [8]) was “Yes”, the microsomal CLint at 1 µM (in vitro [2]) was 15 µL/min/mg and the Papp A→B (in vitro [9]) was 38.3 ×10⁻⁶ cm/s. The efflux ratio (in vitro [9]) was 1.02, the CLint scaled at 1 µM (aldehyde oxidase [5]) was 598 mL/min/kg and the microsomal CLint at 1 µM (in vitro [3]) was 142 µL/min/mg. It also gave a microsomal CLint at 1 µM (in vitro [4]) of 76 µL/min/mg, an F ([6]; Balb/C, in vivo) of 16% and a Vss ([6]; Balb/C, in vivo) of 2.7 L/kg. For the same molecule, the in vivo clearance [6] was “exceeded liver blood flow”.

In the case of `Cn1ncc2cc(-c3cnc(N)c(Cl)c3N3CCC4(CCNC4=O)CC3)ccc21` [Compound 2], the IC50 (WNT signaling [10]) is listed as 11.8 ± 17.9 nM and the IC50 (CDK19) is listed as 2.6 ± 0.4 nM.

For `Cn1cc(-c2ccc(-c3cncc4ccc(N5CCCS5(=O)=O)cc34)cc2)cn1` [Compound 35], the “drop off in the cell-based assay” value (WNT signaling [1]) was 7 fold, the microsomal CLint at 1 µM (in vitro [2]) was 54 µL/min/mg and the microsomal CLint at 1 µM (in vitro [3]) was 81 µL/min/mg. The microsomal CLint at 1 µM (in vitro [4]) was 213 µL/min/mg.

For `Cn1cc(-c2ccc(-c3cncc4ccc(N5CCCC5=O)nc34)cc2)cn1` [Compound 19], the “fold less active in the cell-based assay” value (WNT signaling [1]) was 10 fold, the microsomal CLint at 1 µM (in vitro [2]) was 143 µL/min/mg and the CLint scaled at 1 µM (aldehyde oxidase [5]) was 418 mL/min/kg. For the same molecule, the microsomal CLint at 1 µM (in vitro [3]) was 253 µL/min/mg and the microsomal CLint at 1 µM (in vitro [4]) was 392 µL/min/mg.

In the case of `Cn1cc(-c2ccc(-c3cncc(Cl)c3N3CCC4(CCNC4=O)CC3)cc2)cn1` [Compound 1], the IC50 (WNT signaling [10]) is listed as 5 ± 1 nM and the IC50 (CDK19) is listed as 6 ± 1 nM.

With `CNC(=O)c1ccc2c(N)ncc(-c3ccc4c(c3)CS(=O)(=O)N4C)c2n1` [Compound 48] the “AO substrate (Enzyme assay)” value (aldehyde oxidase [8]) was “No”, the microsomal CLint (in vitro [2]) was 18 µL/min/mg and the CLint scaled at 1 µM (aldehyde oxidase [5]) was 15 mL/min/kg. For the same molecule, the microsomal CLint (in vitro [3]) was 24 µL/min/mg, the microsomal CLint (in vitro [4]) was 94 µL/min/mg and the Cl ([6]; Balb/C, in vivo) was 213 mL/min/kg. It also gave an F ([6]; Balb/C, in vivo) of 29%, a Vss ([6]; Balb/C, in vivo) of 5.64 L/kg and an IC50 (WNT signaling [11]) of 9.3 ± 2.3 nM.
